From PubChem BioAssay AID624491 (Broad Institute, 2012)

system: D54 ERlucT glycosylation luciferase reporter, luminescence, 24 h; test: N-linked glycosylation inhibitors, luciferase reporter, dose response, D54 ERlucT cells, luminescence, cherry-picks (AID 624491);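 further: signal gain reflects blocked N-linked glycosylation of a luciferase reporter; actives raise luciferase signal so AC26 marks activators of the reporter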

SMILES	AC26 [nM]
CC1(C(=O)NCc2ccco2)Cc2c(-c3cccc(C(F)(F)F)c3)ccnc2O1 (configuration not stated)	7710
Cc1cc2c(cc(C(=O)OCC(=O)NCc3ccco3)n2C)s1	198
CC(C)(C)NCC(O)CON=C1c2ccccc2-c2ccccc21 (configuration not stated)	5310
Nc1ccc(C(=O)Nc2ccccc2N)cc1	2880
Cc1ccc(NC(=O)C(Cc2ccccc2)N2C(=O)C3C4CCC(C4)C3C2=O)cc1Cl (configuration not stated)	3240
O=C(/C=C/c1ccc([N+](=O)[O-])cc1)/C=C/c1ccco1	1140
Cc1ccc(-c2nn3c(C)nnc3c3ccccc23)cc1S(=O)(=O)N(C)CCO	4210
COc1ccc(-c2nnc(SCC(=O)Nc3ncc(C)s3)n2-c2ccccc2)cc1OC	1050
CCOC(=O)Cc1csc(/N=C/c2c(O)n(-c3ccc(C)c(C)c3)c(=O)c3ccccc23)n1	2580
CCOC(=O)c1cc2[nH]c3ccccc3c2[n+](-c2ccc([N+](=O)[O-])cc2)c1N	1930
CC(=O)Nc1ccc(-c2ccnc3c2CC(C(=O)NCc2cccc(Cl)c2)O3)cc1 (configuration not stated)	540
O=C(c1ncn(Cc2ccccc2)c1C(=O)N1CCN(c2ccccc2)CC1)N1CCN(c2ccccc2)CC1	513
CC(=O)c1cccc(Nc2c3c(nc4ccccc24)CCC3)c1	819
CC(=O)Nc1cccc(-c2ccnc3c2CC(C)(C(=O)NCc2cccs2)O3)c1 (configuration not stated)	1450
Cc1cc(C)c2nc3nc(C)cc(C)c3c(N)c2c1	145
Cc1cc(=O)oc2cc(OCC(=O)N3c4ccccc4CC3C)ccc12 (configuration not stated)	1090
COc1cc2c(cc1OC)C(C)N(C(=O)Nc1cc(C)cc(C)c1)CC2 (configuration not stated)	6970
O=C(Nc1ccncc1)C1CCCN(S(=O)(=O)c2cccc3cccnc23)C1 (configuration not stated)	579
COc1ccc(C2(CNC(=O)c3cc(OC)c(OC)c(OC)c3)CCCC2)cc1OC	3140
CC1=CC(C)[C@H](/C=N/n2c(=O)[nH]c3c([nH]c4ccc(C)cc43)c2=O)C(C)C1 (some centres not stated)	4040
CCc1nn2c(NCCCO)cc(C)nc2c1-c1ccc(F)cc1	1630
Cc1ccc(CC(=O)NCc2ccc(F)cc2)cc1	824
COc1ccccc1N1CCN(C(=O)c2[nH]c(C(F)(F)F)nc2-c2ccccc2)CC1	2770
CCOC(=O)N/N=C/c1ccc(N(CC)CC)cc1O	2990

SMILES	AC26 [nM]
CCCNC(=O)c1cc(-c2ccco2)on1	3780
C=C(C)[C@@]12OC3(c4ccccc4)O[C@@H]1C1[C@@H]4O[C@]4(CO)[C@@H](O)[C@]4(O)C(=O)C(C)=C[C@H]4[C@@]1(O3)[C@H](C)[C@H]2OC(=O)/C=C/C=C/c1ccccc1 (some centres not stated)	< 1.2
Cc1noc(C)c1COc1cccc(C(=O)OC(C)C(=O)Nc2ccc3c(c2)OCO3)c1 (configuration not stated)	40.4
COc1cc(-c2[nH]ncc2CN2CCSCC2)cc(OC)c1OC	4790
O=C(c1ccc(Cl)c(S(=O)(=O)N2CCCCC2)c1)N1CCN(Cc2ccccc2)CC1	4150
COc1cc(OC)c(N2CC(C(=O)Nc3cc(Cl)ccc3N3CCOCC3)CC2=O)cc1Cl (configuration not stated)	3310
O=C(COc1ccc(C(=O)c2ccccc2)cc1)NCc1ccc(F)cc1	1870
CC(C)c1ccc(NC(=O)CN2C(=O)NC3(CCCCCCC3)C2=O)cc1	1210
CCn1c(=O)cc(SCC(=O)NCCCN2CCN(c3ccc(F)cc3)CC2)c2ccccc21	9830
CC(=O)c1cccc(Nc2cc(C)nc3c(C)cc(C)cc23)c1	4210
CCNC(=O)c1cc2c(=O)n3cccc(C)c3nc2n(CCc2ccccc2)c1=N	1520
Cc1cc(C)cc(C(=O)N2CC(=O)Nc3ccccc32)c1	265
c1ccc(-c2n[nH]c(-c3ccccc3)c2-c2nc3ccccc3[nH]2)cc1	4360
COc1ccc(C2=Nn3c(nnc3-c3ccccc3F)SC2)cc1OC1CCOC1 (configuration not stated)	4730
COc1cc(F)ccc1-c1csc(C(NC(C)=O)c2cccc(F)c2)n1 (configuration not stated)	206
CCc1nnc2n1N=C(c1ccc(OC)cc1)CS2	6840
Cc1cc(Cl)ccc1OCCCC(=O)NO	2730
CN(C)S(=O)(=O)c1ccc(N2CCCC2)c(C(=O)Nc2ccccc2)c1	957
Cc1[nH]nc2c1C(c1cccc(O)c1)C1=C(CC(C)(C)CC1=O)N2 (configuration not stated)	1870
COc1cccc(Sc2ccccc2/C=N/NC(N)=O)c1	8340
CCOc1ccc(S(=O)(=O)NCc2ccccn2)cc1NC(=O)c1ccccc1F	593
Cc1nn(C(C)(C)C)c(OC(=O)c2ccc3c(c2)OCO3)c1Sc1ccccc1	3070
O=C1CCCC2=C1C1(CCCCC1)N=C(Nc1nc3ccccc3o1)N2	5790
